Assay results: PubChem BioAssay AID504931 (NMMLSC, 2011)
Calls of active or inactive are those of the source.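 How the source made its calls: active means compounds with a reliable fitted curve whose half-effect concentration is below 50 µM; inactive means the rest.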

Test system: not listed separately
Assay: S. cerevisiae superoxide reduction in aged cells – powder samples, confirmation, dose response (AID 504931)
Settings: S. cerevisiae aged cells, superoxide DHE fluorescence, 7 d; at 100 µM (top of the series)

| Compound | percent response, lower = inhibition |
| --- | --- |
| Cc1cc(C)cc(NC(=O)CN2CCN(c3ccccn3)CC2)c1 | 99.1% (inactive) |
| O=C(Nc1cccc(Cl)c1)Nc1ccc2nccnc2c1 | 87.5% (inactive) |
| O=C(OCc1c(F)cccc1Cl)c1cnc2ccccc2n1 | 86.9% (inactive) |
| CSc1nnc(-c2ccc([N+](=O)[O-])cc2)o1 | 74% (inactive) |
| C=CCOn1c(=O)c(-c2cccs2)[n+]([O-])c2ccccc21 | 112% (inactive) |
| O=C(c1ccc2nccnc2c1)N1CCCCC1 | 105% (inactive) |
| COc1ccc2nc3ccccc3[n+]([O-])c2c1 | 122% (inactive) |
| O=C(Nc1cccc2nccnc12)c1ccccc1 | 80.3% (inactive) |
| O=C(Nc1ccc2nccnc2c1)N1CCOCC1 | 96.4% (inactive) |
| [O-][n+]1c2ccccc2[n+]([O-])c2cc(O)ccc21 | 126% (inactive) |
| N#CC(c1nc2ccccc2nc1N1CCCC1)S(=O)(=O)c1ccccc1 (stereo not drawn) | 89.3% (inactive) |
| O=C(O)c1cnc2ccccc2n1 | 75.7% (inactive) |
| CCN(CC)C(=O)CSc1nnc(-c2cccc(OC)c2)o1 | 104% (inactive) |
| COc1ccc2nc3ccccc3nc2c1 | 108% (inactive) |
| O=C(Nc1ccc2nccnc2c1)NC1CCCCC1 | 96% (inactive) |
| O=C(c1cccc2nccnc12)N1CCOc2ccccc21 | 96.8% (inactive) |
| O=C(Nc1ccc2nc3ccccc3nc2c1)c1ccc(Br)cc1 | 88% (inactive) |
| O=C(NCc1ccccc1)c1ccc2nccnc2c1 | 178% (inactive) |
| O=C(Nc1ccccc1)c1ccc2nccnc2c1 | 96.8% (inactive) |
| O=C(Nc1ccc2nccnc2c1)N1CCN(c2ccccc2)CC1 | 91.3% (inactive) |
| O=C(O)c1ccc2nccnc2c1 | 85.8% (inactive) |
| O=C(/C=C/c1cccs1)NC(=S)NNC(=O)Cc1cccs1 | 66.6% (inactive) |
| CN(C)C(=O)c1ccc2nccnc2c1 | 181% (inactive) |
| Cn1c(O)c(C(=Nc2ccc(F)cc2)c2ccccc2Cl)c(=O)n(C)c1=O | 98.6% (inactive) |
| Oc1cccc2nc3ccccc3nc12 | 194% (inactive) |
| CCn1c2ccccc2c2n[nH]c(=S)nc21 | 99.9% (inactive) |

| Compound | percent response, lower = inhibition |
| --- | --- |
| CN(C)CCNc1ncnc2c1cnn2-c1ccc(Cl)cc1 | 92% (inactive) |
| Cc1cc(C)c2[nH]c3nc(SCC(=O)O)nnc3c2c1 | 92.4% (inactive) |
| C[n+]1c2ccccc2nc2ccc(NCCO)cc21 | 62.9% (inactive) |
| C=CCSc1ccc(-c2ccc([N+](=O)[O-])cc2)o1 | 54.8% (inactive) |
| CC(C)CSc1nnc2c3ccccc3n(C)c2n1 | 110% (inactive) |
| O=C(c1cccc2nccnc12)N1CCN(c2ccccc2F)CC1 | 101% (inactive) |
| CC(C)(C)Nc1ncnc2c1cnn2-c1ccccc1 | 94.4% (inactive) |
| CC(C)(C)NC(=O)Nc1ccc2nccnc2c1 | 101% (inactive) |
| CN1CCN(C(=O)c2ccc3nccnc3c2)CC1 | 105% (inactive) |
| Nc1ccc2nccnc2c1 | 96.2% (inactive) |
| O=C(c1ccc2nccnc2c1)N1CCN(c2ccccc2)CC1 | 89.9% (inactive) |
| CC(C)OC(=O)CSc1nnc(-c2ccc(Cl)cc2Cl)o1 | 97.2% (inactive) |
| C[C@@]12C(=O)OC(=O)[C@]1(C)C1CCC2O1 | 351% (inactive) |
| c1ccc2nc3ccccc3nc2c1 | 119% (inactive) |
| COc1ccc2cc(C3CC(c4ccco4)=NN3S(=O)(=O)c3ccccc3)c(Cl)nc2c1 (stereo not drawn) | 97.3% (inactive) |
| O=C(Nc1ccc2nccnc2c1)c1cccc2nccnc12 | 80.9% (inactive) |
| O=C(O)c1cccc2nccnc12 | 93.9% (inactive) |
| CCC(=Nc1ccccc1O)C1=C(O)CC(c2ccccc2)CC1=O (stereo not drawn) | 62.2% (inactive) |
| Cn1c(=O)[nH]c2nncnc2c1=O | 111% (inactive) |
| O=C(/C=C/c1ccccc1)NC(=S)NNC(=O)Cc1cccs1 | 74.9% (inactive) |
| CCc1nc(NC(C)(C)C)c2cnn(-c3ccccc3)c2n1 | 117% (inactive) |
| Cc1cc2nc3ccc(N(C)C)cc3nc2cc1N | 89.3% (inactive) |
| O=C(CN1CCN(c2ccccn2)CC1)Nc1ccccc1F | 98.8% (inactive) |
| O=c1[nH]c(O)c(C=Nc2ccc(F)c(Cl)c2)c(=O)[nH]1 | 106% (inactive) |
| C#CCSc1ccc(-c2ccc([N+](=O)[O-])cc2)o1 | 58% (inactive) |

Test system: S. cerevisiae aged cells, superoxide DHE fluorescence, 7 d
Assay: as above
Settings: not given

| Compound | EC50 |
| --- | --- |
| OCC[n+]1c2ccccc2nc2ccc(N3CCOCC3)cc21 | 10.7 µM |
| CCN(CC)C(=O)c1ccc2nc3ccccc3nc2c1 | 0.8 µM |
| O=C(c1cccc2nc3ccccc3nc12)N1CCOCC1 | 2.33 µM |
| Cc1ccccc1NC(=O)c1cccc2nc3ccccc3nc12 | 5.45 µM |
| CC(C)(C)n1nc(-c2ccc(F)cc2)c2c(N)ncnc21 | 17.2 µM |
| COc1ccc2nc3ccccc3nc2c1NC(=O)c1ccccc1Cl | 1.11 µM |
| CC(C)(C)n1nc(-c2ccc(Cl)cc2)c2c(N)ncnc21 | 7.98 µM |
| COc1cccc2nc3cc(C)c(C)cc3nc12 | 0.9 µM |
| CCCCCNC(=O)C(=O)C1C(=O)Nc2ccccc21 (stereo not drawn) | 0.33 µM |
| N#CCc1nn(-c2ccccc2)c2ncnc(N)c12 | 0.8 µM |
| Cc1ccc(-c2nn(C(C)(C)C)c3ncnc(N)c23)cc1 | 2.25 µM |
| Nc1cc2nc3ccccc3nc2cc1N | 4.5 µM |
| c1ccc2[nH]c3cc4ncnc4cc3nc2c1 | 1.11 µM |
| FC(F)(F)c1nc2cc3nc4ccccc4[nH]c3cc2n1 | 0.51 µM |
| COc1ccc2c(c1)c1nnc(SC)nc1n2C | 1.57 µM |
| CC(=O)Nc1ccc2nc3ccccc3nc2c1 | 0.33 µM |
| CNc1ccc2nc3ccccc3[n+](C)c2c1 | 6.01 µM |
| O=C1c2c(O)ccc(O)c2C(=O)c2c(NCCNCCO)ccc(NCCNCCO)c21 | 3.41 µM |
| CCN(CC)c1ccc2nc3ccc(N)cc3[n+](-c3ccccc3)c2c1 | 26.4 µM |
| CCN(CC)C(=O)c1cccc2nc3ccccc3nc12 | 2.8 µM |
| COc1ccc2nc3ccccc3nc2c1N | 2.32 µM |
| CC(C)OC(=O)c1ccc2nc3ccccc3nc2c1 | 10.9 µM |
